Measured values published in US10231958B2, “Methods and compositions for enhancing chemotherapy” (THE BOARD OF REGENTS OF THE UNIVERSITY OF TEXAS SYSTEM, priority 2015, dated 2019).
Converted amounts (≈) assume the structure as drawn. “Also recorded” adds a separate entry of the source.

Assays:
[1] = system: Kc167 cells, MEFs, and MDA-MB231 breast cancer cells; assay: Cell viability (CellTiter-Glo); assay type: cell-based, D. melanogaster, mouse, human; conditions: Drosophila melanogaster, MDA-MB-231, 24 h
Procedure: The D. melanogaster embryonic cell line Kc167 was grown in Schneider medium (Invitrogen, Carlsbad, Calif.) supplemented with 10% heat-inactivated (56° C./30 min) fetal bovine serum (FBS), penicillin and streptomycin at 22° C. in a humidified incubator. Primary MEFs were obtained by harvesting 14.5-day C57BL/6J embryos as previously described (Ravi et al., 2009, PLoS Genet 5, e1000527). Briefly, fetal liver and head were removed and the remainder of the embryo was mechanically disaggregated in plating medium. A suspension of single-cells was plated in DMEM (plus 10% FBS, 100 U/mL penicillin and 100 μg/mL streptomycin). MEFs were grown for two passages before freezing aliquots. Aliquots were taken and expanded as needed for each experiment. MDA-MB231, SkBr3 and MCF-7 breast cancer cells lines were obtained from ATCC and grown in DMEM supplemented with 10% inactivated FBS plus antibiotics in a 37° C. humidified incubator at […] atmosphere. Cells were kept and treated in the exponential phase of growing (60-70% confluence). […] DMSO concentrations were kept to a maximum of 0.1% for all experiments. Cell viability was assessed using CellTiter-Glo Luminescent Viability assay (Promega) in 384 or 96-well plates white-border clear-bottom plated cells. For caspase-3/7 activity, Caspase-Glo 3/7 Assay kits were used (Promega). For caspase assays, the cells were seeded in 96-well plates and assayed directly after treatments. Caspase-3/7 inhibitor (Z-DEVD-fmk) was used to ensure assay specificity. LDH release into culture medium was quantified by Cytotox-96 Non-Radioactive assay kit in agreement with instructions (Promega).

[2] = system: MDA-MB231 xenograft implants; assay: MDA-MB231 xenograft study; assay type: in vivo, mouse
From the text: The study was approved by the University of Texas Health Science Center at San Antonio Institutional Animal Care and Use Committee (IACUC) policy as outlined in protocol number 11024. The facility is operated in compliance with the Public Law 89-544 (Animal Welfare Act) and its amendments, Public Health Services Policy on Humane Care and Use of Laboratory Animals (PHS Policy) using the Guide for the Care and Use of Laboratory Animals (Guide) as the basis of operation. Selection of cyclophosphamide and sorafenib doses was based on previously published reports (Sun et al., 2010, J Int Med Res 38, 967-76; Wilhelm et al., 2004 Cancer Res 64, 7099-109). MDA-MB-231 cells were harvested by trypsinization, washed and re-suspended in serum-free medium. Thereafter, cells were mixed with matrigel (1:1), and approximately 5×10^6 cells were subcutaneously injected in the right flank of each mouse. When the average tumor volume reached about 100 mm^3, mice were randomized into groups of 8 animals each, and the following treatment protocol was implemented: Group 1 (control): 100 μL of saline (i.p.); Group 2: sorafenib (1 mg/kg; i.p.) for 9 days; Group 3: cyclophosphamide 0.1 g/kg on days 2, 4, 6 and 8; Group 4: Sorafenib+cyclophosphamide (combination of same above described regimens). All animals were sacrificed 5 days after the end of treatments (15th day of the treatment protocol). Body weight of mice was recorded weekly, and tumor size was measured thrice a week in two dimensions using a digital caliper. The tumor volume was calculated by the formula 0.5236 L1(L2)^2, where L1 is the long axis, and L2 is the short axis of the tumor. At the termination of the study, mice were euthanized; tumors were excised and a part was fixed in 10% phosphate-buffered formalin for H&E, Masson's staining and immunohistochemistry (IHC) analyses.

[3] = system: primary MEFs or breast cancer cells; assay: Cell viability of MEFs and breast cancer cells with kinase inhibitors; assay type: cell-based, mouse, human
Procedure: The D. melanogaster embryonic cell line Kc167 was grown in Schneider medium (Invitrogen, Carlsbad, Calif.) supplemented with 10% heat-inactivated (56° C./30 min) fetal bovine serum (FBS), penicillin and streptomycin at 22° C. in a humidified incubator. Primary MEFs were obtained by harvesting 14.5-day C57BL/6J embryos as previously described (Ravi et al., 2009, PLoS Genet 5, e1000527). Briefly, fetal liver and head were removed and the remainder of the embryo was mechanically disaggregated in plating medium. A suspension of single-cells was plated in DMEM (plus 10% FBS, 100 U/mL penicillin and 100 μg/mL streptomycin). MEFs were grown for two passages before freezing aliquots. Aliquots were taken and expanded as needed for each experiment. MDA-MB231, SkBr3 and MCF-7 breast cancer cells lines were obtained from ATCC and grown in DMEM supplemented with 10% inactivated FBS plus antibiotics in a 37° C. humidified incubator at […] atmosphere. Cells were kept and treated in the exponential phase of growing (60-70% confluence). Pharmaceuticals Sorafenib (Santa Cruz Biotechnology), UO126, SP600125, SB239063, celecoxib, buthionine sulfoximine (BSO), cycloheximide (CHX), actinomycin D and BAY117082 (BAY), or antioxidants as N-Acetyl-Cysteine (NAC), glutathione ethyl-ester (GSH-E) and Trolox (all from Sigma-Aldrich, USA) were pre-incubated with cells for 6 to 8 h before treatments with MMS, temozolomide, CDDP (from Sigma-Aldrich, USA) or 4-hydroperoxycyclophosphamide (4-HC; from US Biological). DMSO concentrations were kept to a maximum of 0.1% for all experiments.
Cell viability was assessed using CellTiter-Glo Luminescent Viability assay (Promega) in 384 or 96-well plates white-border clear-bottom plated cells. For caspase-3/7 activity, Caspase-Glo 3/7 Assay kits were used (Promega). For caspase assays, the cells were seeded in 96-well plates and assayed directly after treatments. […] LDH release into culture medium was quantified by Cytotox-96 Non-Radioactive assay kit in agreement with instructions (Promega).

| Compound | IC90 [1] | tumor growth, single agent ([2]; sorafenib 1 mg/kg i.p. 9 days, cyclophosphamide 0.1 g/kg days 2, 4, 6, 8) | tumor growth, combination with cyclophosphamide ([2]; sorafenib 1 mg/kg i.p. plus cyclophosphamide 0.1 g/kg) | tumor volume at which growth was stabilized ([2]; sorafenib alone, 7 days of treatment) | effect on cyclophosphamide-induced angiogenic response ([2]; sorafenib combined with cyclophosphamide) | effect on viability at low concentrations ([3]; 1 to 5 μM, presence or absence of alkylating agents) | concentration with non-selective cytotoxicity ([3]; breast cell lines and MEFs, GSH depletion, aberrant ROS) | viability at higher levels ([3]; higher levels of sorafenib) |
| --- | --- | --- | --- | --- | --- | --- | --- | --- |
| COS(C)(=O)=O [MMS, methyl-methanesulfonate] | 80 µg/mL (≈ 726 µM) | – | – | – | – | – | – | – |
| CNC(=O)c1cc(Oc2ccc(NC(=O)Nc3ccc(Cl)c(C(F)(F)F)c3)cc2)ccn1 [sorafenib, 4-[4-[[4-chloro-3-(trifluoromethyl)phenyl]carbamoylamino]phenoxy]-N-methyl-pyridine-2-carboxamide] | – | significantly decrease tumor growth | synergize with cyclophosphamide | ~150 mm^3 | significant inhibition of cyclophosphamide-induced angiogenic response; also recorded: blocked cyclophosphamide-induced vessels formation | did not affect MMS/4-HC-induced losses in cell viability | ≥ 20 µM | non-selective detriment to both cancer cells and MEFs |
